The target of one assay is Helios (Homo sapiens, UniProt Q96SW2+Q9UKS7). Description: Helios Cellular Degradation Assay (Helios readout). Type of assay: cell-based. On the set-up: endogenous in cells; host or cells: Jurkat. The note with it: Jurkat cells, 72 h incubation, Helios-PE antibody staining, flow cytometry; read-out: Helios Jurkat IC50. As to the method:
(§1) Jurkat cells were plated at 80,000 cells/well in 40 μL RPMI+10% FBS in a 384 well cell culture plate prior to using acoustic dispensing technology for adding compound of interest. Cell cultures were incubated for 72 h at 37° C. and 5% C02. In order to facilitate analysis, cell cultures were spun down at 200 rpm for 5 min and the supernatant was discarded. After shaking the plate to dislodge the cell pellet, cells were resuspended in 50 μL of Fixation Buffer (eBioScience FoxP3 buffer set 00-5523-00) for 60 min at room temperature. After centrifuging and discarding the supernatant, cells were permeabilized with 50 μL of Permeabilization buffer (eBioScience FoxP3 buffer set 00-5523-00) for 10 min at room temperature. Following permeabilization, cells were spun down and the supernatant was replaced with 20 μL fluorescently labelled antibodies against Helios, Ikaros and Aiolos or corresponding Isotype controls in 1× Permeabilization buffer (Ikaros-Alexa488 [Biolegend, Cat #368408, 1:50], Helios-PE [CST, Cat #29360, 1:50], Aiolos-Alexa647 [Biolegend, Cat #371106Biolegend, 1:25]) and staining reactions were incubated for 1 h at room temperature; protected from light. Subsequently, 30 μL of 1× Permeabilization buffer was added prior to centrifuging the cells and discarding the supernatant. Stained cells were resuspended in 25 μL of flow cytometry staining buffer (PBS+0.2% BSA) and analyzed using an Intellicyt Ique Plus flow cytometer.
Background: A flow cytometer gives signals particle by particle.

A further assay deals with Ikaros (Homo sapiens, UniProt Q13422+Q96SW2). Description: Helios Cellular Degradation Assay (Ikaros readout). Type of assay: cell-based. Also noted: endogenous in cells; host or cells: Jurkat. Conditions: Jurkat cells, 72 h incubation, Ikaros-Alexa488 antibody staining, flow cytometry; read-out: Ikaros Jurkat IC50. The protocol: as §1
Ikaros, sequence (Q13422 whole entry): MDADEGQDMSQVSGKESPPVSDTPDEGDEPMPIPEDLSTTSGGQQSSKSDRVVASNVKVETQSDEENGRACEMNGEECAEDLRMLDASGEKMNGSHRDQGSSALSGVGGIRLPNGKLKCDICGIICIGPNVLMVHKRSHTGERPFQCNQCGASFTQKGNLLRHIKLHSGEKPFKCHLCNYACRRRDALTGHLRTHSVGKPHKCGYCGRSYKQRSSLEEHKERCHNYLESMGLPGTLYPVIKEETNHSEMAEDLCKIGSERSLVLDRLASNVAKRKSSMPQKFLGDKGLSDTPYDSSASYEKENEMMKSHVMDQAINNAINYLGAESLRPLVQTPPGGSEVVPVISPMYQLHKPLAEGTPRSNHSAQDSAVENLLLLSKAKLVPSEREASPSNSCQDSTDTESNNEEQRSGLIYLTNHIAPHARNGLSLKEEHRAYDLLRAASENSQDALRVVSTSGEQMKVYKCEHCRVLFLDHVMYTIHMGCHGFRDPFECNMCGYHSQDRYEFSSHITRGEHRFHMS
Ikaros, sequence (Q96SW2 whole entry): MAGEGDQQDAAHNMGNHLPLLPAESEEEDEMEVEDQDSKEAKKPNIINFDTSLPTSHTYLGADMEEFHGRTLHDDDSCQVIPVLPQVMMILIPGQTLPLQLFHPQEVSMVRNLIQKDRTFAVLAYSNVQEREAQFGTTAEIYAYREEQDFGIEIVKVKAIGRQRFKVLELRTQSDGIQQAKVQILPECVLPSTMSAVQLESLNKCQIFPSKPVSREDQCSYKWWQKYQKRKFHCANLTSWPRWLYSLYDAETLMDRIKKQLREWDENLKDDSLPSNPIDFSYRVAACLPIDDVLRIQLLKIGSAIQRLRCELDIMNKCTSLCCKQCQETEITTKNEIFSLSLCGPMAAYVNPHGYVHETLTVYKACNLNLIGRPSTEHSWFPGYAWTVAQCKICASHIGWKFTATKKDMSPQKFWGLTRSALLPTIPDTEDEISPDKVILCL
Ikaros, sequence (Q16531 whole entry partner): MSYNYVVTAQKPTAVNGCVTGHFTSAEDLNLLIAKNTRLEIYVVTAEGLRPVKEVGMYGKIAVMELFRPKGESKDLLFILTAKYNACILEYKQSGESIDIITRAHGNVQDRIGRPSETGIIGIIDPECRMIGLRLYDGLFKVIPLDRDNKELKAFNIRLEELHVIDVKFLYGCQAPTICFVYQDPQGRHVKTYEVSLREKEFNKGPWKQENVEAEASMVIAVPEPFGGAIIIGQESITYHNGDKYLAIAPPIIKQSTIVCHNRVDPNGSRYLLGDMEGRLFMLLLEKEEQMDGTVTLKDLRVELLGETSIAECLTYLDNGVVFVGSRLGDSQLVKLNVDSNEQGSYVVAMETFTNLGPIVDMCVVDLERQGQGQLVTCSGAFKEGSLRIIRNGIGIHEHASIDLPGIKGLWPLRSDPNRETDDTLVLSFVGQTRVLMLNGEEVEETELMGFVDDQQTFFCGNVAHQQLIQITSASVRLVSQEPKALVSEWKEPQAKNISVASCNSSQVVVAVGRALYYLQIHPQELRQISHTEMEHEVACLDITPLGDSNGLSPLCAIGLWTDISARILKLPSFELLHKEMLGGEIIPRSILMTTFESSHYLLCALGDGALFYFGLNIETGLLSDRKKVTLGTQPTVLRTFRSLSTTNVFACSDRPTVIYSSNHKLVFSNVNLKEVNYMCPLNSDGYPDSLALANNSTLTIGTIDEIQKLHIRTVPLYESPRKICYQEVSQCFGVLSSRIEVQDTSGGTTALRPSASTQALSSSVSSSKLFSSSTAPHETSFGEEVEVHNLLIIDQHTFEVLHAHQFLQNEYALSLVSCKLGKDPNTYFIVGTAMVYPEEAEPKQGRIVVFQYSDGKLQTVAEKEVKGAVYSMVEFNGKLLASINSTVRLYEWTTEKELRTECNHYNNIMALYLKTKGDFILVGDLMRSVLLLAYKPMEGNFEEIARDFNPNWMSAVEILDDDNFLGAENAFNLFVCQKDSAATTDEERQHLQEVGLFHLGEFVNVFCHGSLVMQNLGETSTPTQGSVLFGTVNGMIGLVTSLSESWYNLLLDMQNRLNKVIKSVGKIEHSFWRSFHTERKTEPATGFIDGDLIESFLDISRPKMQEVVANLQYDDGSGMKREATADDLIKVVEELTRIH

These results are taken from US12570671B2 (BRISTOL-MYERS SQUIBB COMPANY, priority 2020, dated 2026).

Helios, sequence (Q9UKS7 whole entry): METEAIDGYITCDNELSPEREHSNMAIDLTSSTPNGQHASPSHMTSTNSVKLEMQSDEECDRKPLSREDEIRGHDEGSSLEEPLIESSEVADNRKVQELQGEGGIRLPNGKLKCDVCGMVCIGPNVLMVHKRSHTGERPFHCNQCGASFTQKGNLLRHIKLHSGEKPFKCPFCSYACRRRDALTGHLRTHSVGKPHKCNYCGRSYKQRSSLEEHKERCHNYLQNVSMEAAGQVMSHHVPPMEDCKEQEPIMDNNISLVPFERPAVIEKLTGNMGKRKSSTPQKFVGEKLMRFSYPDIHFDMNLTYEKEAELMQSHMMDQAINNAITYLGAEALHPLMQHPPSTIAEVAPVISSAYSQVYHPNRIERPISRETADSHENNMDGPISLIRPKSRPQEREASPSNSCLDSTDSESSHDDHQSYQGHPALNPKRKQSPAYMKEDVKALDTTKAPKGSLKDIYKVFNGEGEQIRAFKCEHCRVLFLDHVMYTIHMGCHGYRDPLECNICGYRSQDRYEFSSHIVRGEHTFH
Helios, sequence (Q96SW2 whole entry): as the sequence (Q96SW2 whole entry) above
Helios, sequence (Q16531 whole entry partner): as the sequence (Q16531 whole entry partner) above

Take `O=C1CCC(N2Cc3cc(-c4ccc5ccccc5n4)ccc3C2=O)C(=O)N1` (centres unmarked) [Example 1, 3-(1-Oxo-5-(quinolin-2-yl)isoindolin-2-yl)piperidine-2,6-dione]: the DC50 at Helios was 34 nM; at Ikaros, above 20 µM.

In the case of `Nc1c(-c2ccc3c(c2)CN(C2CCC(=O)NC2=O)C3=O)ncc2ccccc12` (centres unmarked) [Example 2, 3-(5-(4-Aminoisoquinolin-3-yl)-1-oxoisoindolin-2-yl)piperidine-2,6-dione], the DC50 was 370 nM on Helios and 13.7 µM at Ikaros.

`O=C1CCC(N2Cc3cc(-c4ncnc5c4oc4ccccc45)ccc3C2=O)C(=O)N1` (centres unmarked) [Example 3, 3-(5-{8-oxa-3,5-diazatricyclo[7.4.0.0^2,7]trideca-1(9),2,4,6,10,12-hexaen-6-yl}-1-oxo-2,3-dihydro-1H-isoindol-2-yl)piperidine-2,6-dione]: the DC50 at Helios was 36 nM; at Ikaros it was above 20 µM.

On to `Nc1nc(-c2ccc3c(c2)CN(C2CCC(=O)NC2=O)C3=O)cc2ccccc12` (centres unmarked) [Example 4, 3-[5-(1-aminoisoquinolin-3-yl)-1-oxo-2,3-dihydro-1H-isoindol-2-yl]piperidine-2,6-dione], for which the DC50 on Helios is 6 nM; on Ikaros, above 20 µM.

Take `Nc1nc2ccccc2nc1-c1ccc2c(c1)CN(C1CCC(=O)NC1=O)C2=O` (centres unmarked) [Example 5, 3-[5-(3-aminoquinoxalin-2-yl)-1-oxo-2,3-dihydro-1H-isoindol-2-yl]piperidine-2,6-dione]: the DC50 at Helios was above 20000 nM; at Ikaros, above 20 µM.

For the molecule `O=C1CCC(N2Cc3cc(-c4cc5cc[nH]c5nn4)ccc3C2=O)C(=O)N1` (centres unmarked) [Example 6, 3-(1-oxo-5-{7H-pyrrolo[2,3-c]pyridazin-3-yl}-2,3-dihydro-1H-isoindol-2-yl)piperidine-2,6-dione], the DC50 at Helios was 140 nM; at Ikaros it was above 20 µM.

As to `O=C1CCC(N2Cc3cc(-c4cnc5ccccc5n4)ccc3C2=O)C(=O)N1` (centres unmarked) [Example 7, 3-[1-oxo-5-(quinoxalin-2-yl)-2,3-dihydro-1H-isoindol-2-yl]piperidine-2,6-dione], the results for the DC50 at Helios and at Ikaros were 73 nM and above 20 µM, respectively.

With `Nc1cc(-c2ccc3c(c2)CN(C2CCC(=O)NC2=O)C3=O)nc2ccccc12` (centres unmarked) [Example 8, 3-[5-(4-aminoquinolin-2-yl)-1-oxo-2,3-dihydro-1H-isoindol-2-yl]piperidine-2,6-dione], the DC50 at Helios is 25 nM; on Ikaros it was above 20 µM.

In the case of `O=C1CCC(N2Cc3cc(-c4ncc5ccccc5n4)ccc3C2=O)C(=O)N1` (centres unmarked) [Example 9, 3-[1-oxo-5-(quinazolin-2-yl)-2,3-dihydro-1H-isoindol-2-yl]piperidine-2,6-dione], the DC50 is 27 nM on Helios and above 20 µM at Ikaros.

For the molecule `CCC(C)Nc1nc2ccc(-c3ccc4c(c3)CN(C3CCC(=O)NC3=O)C4=O)nc2s1` (centres unmarked) [Example 10, 3-(5-{2-[(butan-2-yl)amino]-[1,3]thiazolo[5,4-b]pyridin-5-yl}-1-oxo-2,3-dihydro-1H-isoindol-2-yl)piperidine-2,6-dione], the DC50 at Helios is 100 nM; on Ikaros, above 20 µM.

Regarding `O=C1CCC(N2Cc3cc(-c4ncc(F)c5[nH]ccc45)ccc3C2=O)C(=O)N1` (centres unmarked) [Example 11, 3-(5-{7-fluoro-1H-pyrrolo[3,2-c]pyridin-4-yl}-1-oxo-2,3-dihydro-1H-isoindol-2-yl)piperidine-2,6-dione], the DC50 was found to be 42 nM on Helios and 0.097 µM on Ikaros.

Turning to `COc1cc(-c2ccc3c(c2)CN(C2CCC(=O)NC2=O)C3=O)nc2ccccc12` (centres unmarked) [Example 12, 3-[5-(4-methoxyquinolin-2-yl)-1-oxo-2,3-dihydro-1H-isoindol-2-yl]piperidine-2,6-dione], the DC50 at Helios was 38 nM; on Ikaros, above 20 µM.

`O=C1CCC(N2Cc3cc(-c4cc(-c5ccccc5)c5ccccc5n4)ccc3C2=O)C(=O)N1` (centres unmarked) [Example 13, 3-[1-oxo-5-(4-phenylquinolin-2-yl)-2,3-dihydro-1H-isoindol-2-yl]piperidine-2,6-dione]: the DC50 is 750 nM on Helios and above 20 µM at Ikaros.

Consider `O=C1CCC(N2Cc3cc(-c4cc(C(=O)NC5CC5)c5ccccc5n4)ccc3C2=O)C(=O)N1` (centres unmarked) [Example 14, N-cyclopropyl-2-[2-(2,6-dioxopiperidin-3-yl)-1-oxo-2,3-dihydro-1H-isoindol-5-yl]quinoline-4-carboxamide], for which the DC50 was 400 nM on Helios and above 20 µM on Ikaros.

Regarding `CCN(CC)c1nc(-c2ccc3c(c2)CN(C2CCC(=O)NC2=O)C3=O)nc2ccc(Cl)cc12` (centres unmarked) [Example 15, 3-{5-[6-chloro-4-(diethylamino)quinazolin-2-yl]-1-oxo-2,3-dihydro-1H-isoindol-2-yl}piperidine-2,6-dione], the results for the DC50 on Helios and on Ikaros were above 20000 nM and above 20 µM, respectively.

Consider `COc1cc2nc(-c3ccc4c(c3)CN(C3CCC(=O)NC3=O)C4=O)nc(N)c2cc1OC` (centres unmarked) [Example 16, 3-[5-(4-amino-6,7-dimethoxyquinazolin-2-yl)-1-oxo-2,3-dihydro-1H-isoindol-2-yl]piperidine-2,6-dione], for which the results for the DC50 on Helios and on Ikaros were 30 nM and above 20 µM, respectively.

In the case of `COc1ccc2c(-c3ccc4c(c3)CN(C3CCC(=O)NC3=O)C4=O)nccc2c1` (centres unmarked) [Example 17, 3-[5-(6-methoxyisoquinolin-1-yl)-1-oxo-2,3-dihydro-1H-isoindol-2-yl]piperidine-2,6-dione], the DC50 on Helios turned out to be 14 nM; at Ikaros, 0.096 µM.

Regarding `CC(C)(C)Cn1ccc(=O)c2c(N)nc(-c3ccc4c(c3)CN(C3CCC(=O)NC3=O)C4=O)cc21` (centres unmarked) [Example 46, 3-{5-[5-Amino-1-(2,2-dimethylpropyl)-4-oxo-1,4-dihydro-1,6-naphthyridin-7-yl]-1-oxo-2,3-dihydro-1H-isoindol-2-yl}piperidine-2,6-dione], the DC50 on Helios turned out to be 3 nM.

As for `N#Cc1cc2ccccc2c(-c2ccc3c(c2)CN(C2CCC(=O)NC2=O)C3=O)n1` (centres unmarked) [Example 59, 1-[2-(2,6-dioxopiperidin-3-yl)-1-oxo-2,3-dihydro-1H-isoindol-5-yl]isoquinoline-3-carbonitrile], the DC50 on Helios was 24 nM.

Consider `CNc1nc(-c2ccc3c(c2)CN(C2CCC(=O)NC2=O)C3=O)cc2c1ncn2C` (centres unmarked) [Example 61, 3-{5-[1-methyl-4-(methylamino)-1H-imidazo[4,5-c]pyridin-6-yl]-1-oxo-2,3-dihydro-1H-isoindol-2-yl}piperidine-2,6-dione], for which the DC50 at Helios was determined as 7 nM.

Take `O=C1CCC(N2Cc3cc(-c4nc5ccccc5nc4C4CC4)ccc3C2=O)C(=O)N1` (centres unmarked) [Example 97, 3-(5-(3-cyclopropylquinoxalin-2-yl)-1-oxoisoindolin-2-yl)piperidine-2,6-dione]: the DC50 on Helios was 90 nM.

Turning to `CCCc1cc(-c2ccc3c(c2)CN(C2CCC(=O)NC2=O)C3=O)nc(N)c1C#N` (centres unmarked) [Example 172, 2-amino-6-(2-(2,6-dioxopiperidin-3-yl)-1-oxoisoindolin-5-yl)-4-propylnicotinonitrile], the DC50 at Helios came out at 30 nM.

Take `N#Cc1c(C(F)F)cc(N)nc1-c1ccc2c(c1)CN(C1CCC(=O)NC1=O)C2=O` (centres unmarked) [Example 174, 6-amino-4-(difluoromethyl)-2-(2-(2,6-dioxopiperidin-3-yl)-1-oxoisoindolin-5-yl) nicotinonitrile]: on Helios, the DC50 was 350 nM.

Take `N#Cc1c(C(F)(F)F)cc(-c2ccc3c(c2)CN(C2CCC(=O)NC2=O)C3=O)nc1N` (centres unmarked) [Example 177, 2-amino-6-(2-(2,6-dioxopiperidin-3-yl)-1-oxoisoindolin-5-yl)-4-(trifluoromethyl)nicotine-nitrile]: the DC50 on Helios stood at 40 nM.
